Data as given in the NIST ThermoML archive (doi:10.1007/s10765-005-8590-7).
± gives the expanded uncertainty stated by the source.

Assay: xn = mol fraction of the nth substance listed
Details: Fluid (supercritical or subcritical phases), Constant-volume piezometry

N [ammonia] + O
Details	mass density [kg/m3]
275.15 K, 5862 kPa, x1 = 0.0955	967.89 ± 0.22
275.15 K, 7362.2 kPa, x1 = 0.0513	984.54 ± 0.23
275.15 K, 8702.8 kPa, x1 = 0.064	979.9 ± 0.24
275.16 K, 16098 kPa, x1 = 0.047	989.39 ± 0.26
275.23 K, 5541.3 kPa, x1 = 0.0644	979.5 ± 0.23
276.15 K, 5893.5 kPa, x1 = 0.0999	970.55 ± 0.25
277.08 K, 8983.2 kPa, x1 = 0.1386	954.88 ± 0.23
277.14 K, 5409.4 kPa, x1 = 0.1086	963.03 ± 0.23
277.14 K, 9054.1 kPa, x1 = 0.064	979.8 ± 0.24
277.14 K, 16926 kPa, x1 = 0.0606	986.49 ± 0.26
277.15 K, 3335.7 kPa, x1 = 0.014	995.99 ± 0.23
277.15 K, 4008 kPa, x1 = 0.0302	990.84 ± 0.23
277.15 K, 5289 kPa, x1 = 0.1436	951.66 ± 0.22
277.15 K, 7604.3 kPa, x1 = 0.0513	984.44 ± 0.23
277.18 K, 953.2 kPa, x1 = 0.0591	975.15 ± 0.22
277.2 K, 5773.5 kPa, x1 = 0.0644	979.4 ± 0.23
277.21 K, 6487 kPa, x1 = 0.0955	967.76 ± 0.23
279.08 K, 6161.2 kPa, x1 = 0.0644	979.29 ± 0.23
279.11 K, 10157 kPa, x1 = 0.1386	954.73 ± 0.23
279.12 K, 6995.3 kPa, x1 = 0.0999	970.36 ± 0.25
279.12 K, 7195.5 kPa, x1 = 0.0955	967.64 ± 0.25
279.14 K, 3259.7 kPa, x1 = 0.0582	979.2 ± 0.22
279.15 K, 3348.5 kPa, x1 = 0.014	995.9 ± 0.23
279.15 K, 4150.8 kPa, x1 = 0.0302	990.74 ± 0.23
279.15 K, 6475.7 kPa, x1 = 0.1436	951.51 ± 0.22
279.15 K, 7945.5 kPa, x1 = 0.0513	984.33 ± 0.24
279.17 K, 9525.4 kPa, x1 = 0.064	979.68 ± 0.24
280.14 K, 6718.7 kPa, x1 = 0.1086	962.82 ± 0.23
281.08 K, 7983 kPa, x1 = 0.0955	967.51 ± 0.23
281.11 K, 11383 kPa, x1 = 0.1386	954.58 ± 0.23
281.13 K, 10065 kPa, x1 = 0.064	979.57 ± 0.24
281.14 K, 6677.8 kPa, x1 = 0.0644	979.17 ± 0.23
281.15 K, 3472.7 kPa, x1 = 0.014	995.8 ± 0.23
281.15 K, 4392.5 kPa, x1 = 0.0302	990.64 ± 0.23
281.15 K, 8371.2 kPa, x1 = 0.0513	984.22 ± 0.24
281.19 K, 10108 kPa, x1 = 0.064	979.56 ± 0.24
281.22 K, 1795.9 kPa, x1 = 0.0591	974.91 ± 0.22
282.15 K, 8409.8 kPa, x1 = 0.1436	951.28 ± 0.23
282.16 K, 8309.2 kPa, x1 = 0.0999	970.16 ± 0.29
282.8 K, 8732.9 kPa, x1 = 0.0955	967.39 ± 0.23
283.12 K, 4275.1 kPa, x1 = 0.0582	978.96 ± 0.23
283.13 K, 12686 kPa, x1 = 0.1386	954.43 ± 0.25
283.14 K, 8193.3 kPa, x1 = 0.1086	962.61 ± 0.23
283.15 K, 3692.3 kPa, x1 = 0.014	995.7 ± 0.23
283.15 K, 4731.8 kPa, x1 = 0.0302	990.53 ± 0.23
283.15 K, 8198.4 kPa, x1 = 0.1086	962.61 ± 0.23
283.15 K, 8879.5 kPa, x1 = 0.0513	984.1 ± 0.24
283.15 K, 10706 kPa, x1 = 0.064	979.44 ± 0.25
283.17 K, 7273.4 kPa, x1 = 0.0644	979.05 ± 0.24
285.09 K, 7901.4 kPa, x1 = 0.0644	978.93 ± 0.24
285.15 K, 4011.8 kPa, x1 = 0.014	995.59 ± 0.23
285.15 K, 5171.1 kPa, x1 = 0.0302	990.41 ± 0.23
285.15 K, 9527 kPa, x1 = 0.0513	983.98 ± 0.24
285.15 K, 10464 kPa, x1 = 0.1436	951.05 ± 0.24
285.15 K, 10466 kPa, x1 = 0.1436	951.05 ± 0.24
285.16 K, 11435 kPa, x1 = 0.064	979.32 ± 0.25
285.17 K, 2999.7 kPa, x1 = 0.0591	974.66 ± 0.23
285.17 K, 14062 kPa, x1 = 0.1436	954.28 ± 0.25
286.14 K, 9868.4 kPa, x1 = 0.1086	962.4 ± 0.24
287.06 K, 10858 kPa, x1 = 0.0955	967.09 ± 0.24
287.13 K, 5735.3 kPa, x1 = 0.0582	978.69 ± 0.23
287.13 K, 12206 kPa, x1 = 0.064	979.19 ± 0.25
287.15 K, 4434.3 kPa, x1 = 0.014	995.47 ± 0.24
287.15 K, 10223 kPa, x1 = 0.0513	983.85 ± 0.24
287.17 K, 8642.4 kPa, x1 = 0.0644	978.79 ± 0.24
288.13 K, 11389 kPa, x1 = 0.0999	969.74 ± 0.24
288.14 K, 11389 kPa, x1 = 0.0999	969.74 ± 0.24
288.15 K, 12628 kPa, x1 = 0.1436	950.81 ± 0.25
289.04 K, 4499.1 kPa, x1 = 0.0591	974.4 ± 0.23
289.14 K, 6552.7 kPa, x1 = 0.0582	978.56 ± 0.24
289.15 K, 4946.6 kPa, x1 = 0.014	995.35 ± 0.24
289.15 K, 6317.7 kPa, x1 = 0.0302	990.16 ± 0.24
289.15 K, 11020 kPa, x1 = 0.0513	983.72 ± 0.25
289.15 K, 11640 kPa, x1 = 0.1386	962.18 ± 0.26
289.15 K, 13114 kPa, x1 = 0.064	979.06 ± 0.26
289.21 K, 9475.8 kPa, x1 = 0.0644	978.66 ± 0.24
291.12 K, 10278 kPa, x1 = 0.0644	978.53 ± 0.25
291.13 K, 7445.3 kPa, x1 = 0.0582	978.41 ± 0.24
291.13 K, 13172 kPa, x1 = 0.0999	969.52 ± 0.28
291.15 K, 5561.2 kPa, x1 = 0.014	995.22 ± 0.24
291.15 K, 11884 kPa, x1 = 0.0513	983.58 ± 0.25
291.15 K, 14080 kPa, x1 = 0.064	978.92 ± 0.26
291.16 K, 13203 kPa, x1 = 0.0955	966.79 ± 0.28
292.14 K, 7407.7 kPa, x1 = 0.0302	989.96 ± 0.24
292.15 K, 7429.1 kPa, x1 = 0.0302	989.96 ± 0.24
293.12 K, 14421 kPa, x1 = 0.0955	966.65 ± 0.26
293.13 K, 11186 kPa, x1 = 0.0644	978.39 ± 0.24
293.14 K, 8423.6 kPa, x1 = 0.0582	978.27 ± 0.25
293.15 K, 6247.6 kPa, x1 = 0.014	995.09 ± 0.25
293.16 K, 15112 kPa, x1 = 0.064	978.78 ± 0.27
293.22 K, 6453.9 kPa, x1 = 0.0591	974.1 ± 0.24
294.15 K, 15125 kPa, x1 = 0.0999	969.3 ± 0.26
295.11 K, 8696.2 kPa, x1 = 0.0302	989.75 ± 0.25
295.12 K, 9437.2 kPa, x1 = 0.0582	978.12 ± 0.25
295.15 K, 7035 kPa, x1 = 0.014	994.95 ± 0.24
295.15 K, 12162 kPa, x1 = 0.0644	978.25 ± 0.25
295.15 K, 13851 kPa, x1 = 0.0513	983.31 ± 0.26
297.15 K, 7909.9 kPa, x1 = 0.014	994.81 ± 0.25
297.15 K, 10576 kPa, x1 = 0.0582	977.97 ± 0.26
297.21 K, 13180 kPa, x1 = 0.0644	978.11 ± 0.26
297.22 K, 8637.1 kPa, x1 = 0.0591	973.79 ± 0.25
298.16 K, 10232 kPa, x1 = 0.0302	989.53 ± 0.26
299.08 K, 11729 kPa, x1 = 0.0582	977.83 ± 0.26
299.15 K, 8841.2 kPa, x1 = 0.014	994.66 ± 0.26
299.19 K, 14184 kPa, x1 = 0.0644	977.97 ± 0.26
301.02 K, 10950 kPa, x1 = 0.0591	973.5 ± 0.26
301.11 K, 15142 kPa, x1 = 0.0644	977.84 ± 0.27
301.15 K, 9880.3 kPa, x1 = 0.014	994.51 ± 0.26
303.15 K, 10919 kPa, x1 = 0.014	994.37 ± 0.27
303.2 K, 14357 kPa, x1 = 0.0582	977.51 ± 0.27
305.11 K, 13746 kPa, x1 = 0.0591	973.17 ± 0.28
305.15 K, 12107 kPa, x1 = 0.014	994.21 ± 0.27
305.21 K, 15774 kPa, x1 = 0.0582	977.35 ± 0.28
309.15 K, 14684 kPa, x1 = 0.014	993.9 ± 0.28
